These are literature values, as cited in patent US20070207944A1, “Blood Pressure Lowering Oligopeptides” (priority 2004, published 2007).

pIC50: −log10 of the molar value.

One data set concerns the target ACE (Homo sapiens, UniProt P12821). The conditions noted are these: for ACE inhibiting activity: in vitro, as reported in the literature.
Data set [1] relates to spontaneously hypertensive rats. The conditions noted are these: Nakamura et al. 1995, tripeptides from fermented milk.

Sequence of ACE (P12821 30-1306, species assumed): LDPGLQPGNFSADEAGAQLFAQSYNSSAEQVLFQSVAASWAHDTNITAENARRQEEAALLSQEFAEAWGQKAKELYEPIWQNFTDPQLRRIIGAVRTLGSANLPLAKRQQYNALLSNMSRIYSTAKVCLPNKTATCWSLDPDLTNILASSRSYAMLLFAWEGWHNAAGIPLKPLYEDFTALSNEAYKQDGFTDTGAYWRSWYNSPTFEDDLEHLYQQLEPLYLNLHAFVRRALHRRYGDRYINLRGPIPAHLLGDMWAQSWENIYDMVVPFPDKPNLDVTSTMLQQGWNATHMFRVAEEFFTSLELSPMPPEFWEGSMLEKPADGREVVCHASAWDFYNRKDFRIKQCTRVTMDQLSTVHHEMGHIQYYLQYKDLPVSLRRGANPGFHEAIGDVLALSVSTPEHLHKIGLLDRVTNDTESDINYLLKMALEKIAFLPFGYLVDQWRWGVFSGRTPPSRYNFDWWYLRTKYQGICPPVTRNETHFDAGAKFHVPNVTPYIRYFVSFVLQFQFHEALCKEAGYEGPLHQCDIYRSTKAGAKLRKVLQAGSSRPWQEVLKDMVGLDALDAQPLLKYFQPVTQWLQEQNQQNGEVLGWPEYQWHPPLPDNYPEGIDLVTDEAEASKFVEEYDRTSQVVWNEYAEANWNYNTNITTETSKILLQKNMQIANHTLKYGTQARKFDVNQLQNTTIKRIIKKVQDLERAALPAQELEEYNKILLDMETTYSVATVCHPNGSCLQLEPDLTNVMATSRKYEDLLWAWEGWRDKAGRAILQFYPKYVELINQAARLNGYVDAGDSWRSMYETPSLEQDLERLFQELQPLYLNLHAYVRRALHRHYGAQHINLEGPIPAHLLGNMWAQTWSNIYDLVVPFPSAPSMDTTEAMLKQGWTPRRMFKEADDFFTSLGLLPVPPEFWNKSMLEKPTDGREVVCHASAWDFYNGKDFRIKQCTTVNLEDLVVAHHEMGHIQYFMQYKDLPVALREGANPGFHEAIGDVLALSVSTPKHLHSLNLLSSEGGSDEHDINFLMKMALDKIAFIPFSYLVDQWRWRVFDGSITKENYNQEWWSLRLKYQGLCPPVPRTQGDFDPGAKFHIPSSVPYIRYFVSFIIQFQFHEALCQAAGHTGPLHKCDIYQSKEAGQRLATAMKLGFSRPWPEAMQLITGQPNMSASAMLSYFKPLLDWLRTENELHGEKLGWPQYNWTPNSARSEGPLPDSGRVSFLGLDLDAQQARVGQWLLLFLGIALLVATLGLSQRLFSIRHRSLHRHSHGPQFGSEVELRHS

As for Ile-Pro-Pro [IPP], the “ACE inhibiting activity” value on ACE was “Strong ACE inhibiting activities”. The antihypertensive effects result in data set [1] is on record as “could be confirmed”.
Take Leu-Pro-Pro [LPP]: on ACE, the “ACE inhibiting activity” value was “Strong ACE inhibiting activities”.
With Val-Pro-Pro [VPP], the “ACE inhibiting activity” value at ACE is listed as “Strong ACE inhibiting activities”. Besides, on ACE (reported by EP 0 583 074, read-out: IC50 value (ACE inhibition)), the pIC50 (usually −log10 of the IC50, conventionally taken in molar units) is 5.05. In addition, in data set [1], the antihypertensive effects entry is given as “could be confirmed”.
